Assay results reported in patent US7446111B2, “Amorphous rapamycin 42-ester with 3-hydroxy-2-(hydroxymethyl)-2-methylpropionic acid and its pharmaceutical compositions” (Wyeth, priority 2003, dated 2008).
In brackets after ≈: the same amount, converted by molar mass. Read-outs that look alike come from different tables or passages of the source. Values belong to the compound of their own block, whether it stands above or below them.

Legend:
[1] = physchem; format: physicochemical; conditions: for Solubility: pH 4.6
Procedure: The solutions were mixed and maintained at room temperature and a pH of about 4.6. The vials were then shaken on a rotary shaker for 24 hours.
Samples (2 mL) of both of the amorphous and crystalline solutions were withdrawn at selected time intervals (0, 0.5, 3, 5, and 24 h), filtered through a 0.2 μm filter and analyzed at room temperature using high performance liquid chromatography (HPLC) (Table 1). The solubility of the samples was calculated using the data provided in the HPLC chromatograph and techniques used by those skilled in the art and is provided in Table 3.

[2] = physchem; format: physicochemical
Procedure: A 0.005 M citric acid solution containing 0.2% sodium lauryl sulfate and 0.001% calcium EDTA was adjusted to a pH of about 4.73.
The solutions were then mixed, maintained at room temperature, and shaken on a rotary shaker for about 24 to about 48 hours.
Samples (2 mL) of both the amorphous and crystalline solutions were withdrawn at 24 h and 48 h, filtered through a 0.2 μm filter and analyzed at room temperature using high performance liquid chromatography (HPLC) (Table 4). Solubilities of the samples were then calculated using the data provided in the HPLC chromatograph and techniques used by those of skilled in the art and is provided in Table 4.

[3] = 5° C., 1 Week, sample prepared by precipitation
[4] = 40° C./75% RH, 1 Week, sample prepared by precipitation
[5] = Initial, sample prepared by precipitation
[6] = RT, 1 Week, sample prepared by precipitation
[7] = 25 °C, pH 4.6, aqueous buffer, thermodynamic from solid
[8] = 25 °C, pH 4.73, aqueous with cosolvent or surfactant or cyclodextrin, thermodynamic from solid
[9] = 5° C., 1 week, sample prepared by evaporation
[10] = 5° C., 2 weeks, sample prepared by evaporation
[11] = 40° C./75% RH, 1 week, sample prepared by evaporation
[12] = 40° C./75% RH, 2 weeks, sample prepared by evaporation
[13] = Initial, sample prepared by evaporation

SLI [3]: 0.15%
Strength [3]: 98.71%
Total Imp [3]: 0.44%
SECO [4]: 0.04%
SLI [4]: 0.32%
Strength [4]: 91.36%
Total Imp [4]: 0.70%
SLI [5]: 0.20%
Strength [5]: 97.93%
Total Imp [5]: 0.41%
SLI [6]: 0.12%
Strength [6]: 97.49%
Total Imp [6]: 0.37%
SMILES: COC1CC2CCC(C)C(O)(O2)C(=O)C(=O)N2CCCCC2C(=O)OC(C(C)CC2CCC(OC(=O)C(C)(CO)CO)C(OC)C2)CC(=O)C(C)/C=C(\C)C(O)C(OC)C(=O)C(C)CC(C)/C=C/C=C/C=C/1C (centres unmarked) [Amorphous (batch C4), rapamycin 42-ester with 3-hydroxy-2-(hydroxymethyl)-2-methylpropionic acid]

Solubility ([1]; 0 h): 0 µg/mL
solubility at 0.5 h [1, 7]: 0.26 µg/mL (≈ 0.252 µM)
solubility at 3 h [1, 7]: 0.29 µg/mL (≈ 0.281 µM)
solubility at 5 h [1, 7]: 0.23 µg/mL (≈ 0.223 µM)
solubility at 24 h [1, 7]: 0.61 µg/mL (≈ 0.592 µM)
solubility at 24 h [2, 8]: 640 µg/mL (≈ 621 µM)
solubility at 48 h [2, 8]: 640 µg/mL (≈ 621 µM)
SMILES: CO[C@H]1C[C@@H]2CC[C@@H](C)[C@@](O)(O2)C(=O)C(=O)N2CCCC[C@H]2C(=O)O[C@H]([C@H](C)C[C@@H]2CC[C@@H](OC(=O)C(C)(CO)CO)[C@H](OC)C2)CC(=O)[C@H](C)/C=C(\C)[C@@H](O)[C@@H](OC)C(=O)[C@H](C)C[C@H](C)/C=C/C=C/C=C/1C [Crystalline, rapamycin 42-ester with 3-hydroxy-2-(hydroxymethyl)-2-methylpropionic acid]

Solubility relative to crystalline form [1]: 3 times
Solubility relative to crystalline form (general statement) [1]: at least 3 times
Solubility [1]: about 1.88 μg/mL
Solubility relative to crystalline form [2]: about 3.5 times
Solubility ([2]; pH 4.73): about 2.17 mg/mL
Temperature up to which the amorphous form is stable: up to 5 °C
SMILES: COC1CC2CCC(C)C(O)(O2)C(=O)C(=O)N2CCCCC2C(=O)OC(C(C)CC2CCC(OC(=O)C(C)(CO)CO)C(OC)C2)CC(=O)C(C)/C=C(\C)C(O)C(OC)C(=O)C(C)CC(C)/C=C/C=C/C=C/1C (centres unmarked) [amorphous rapamycin 42-ester with 3-hydroxy-2-(hydroxymethyl] [rapamycin 42-ester with 3-hydroxy-2-(hydroxymethyl)-2-methylpropionic acid]

SLI* [9]: 3.91%
Strength [9]: 95.20%
Total Imp [9]: 5.07%
SLI* [10]: 3.74%
Strength [10]: 92.56%
Total Imp [10]: 4.42%
SLI* [11]: 3.93%
Strength [11]: 94.16%
Total Imp [11]: 5.15%
SLI* [12]: 3.72%
Strength [12]: 90.55%
Total Imp [12]: 4.60%
SLI [13]: 0.19%
Strength [13]: Strength = 98.33%,
Total Imp [13]: 0.46%
SMILES: CO[C@H]1C[C@@H]2CC[C@@H](C)[C@@](O)(O2)C(=O)C(=O)N2CCCC[C@H]2C(=O)O[C@H]([C@H](C)C[C@@H]2CC[C@@H](OC(=O)C(C)(CO)CO)[C@H](OC)C2)CC(=O)[C@H](C)/C=C(\C)[C@@H](O)[C@@H](OC)C(=O)[C@H](C)C[C@H](C)/C=C/C=C/C=C/1C [batch A1, rapamycin 42-ester with 3-hydroxy-2-(hydroxymethyl)-2-methylpropionic acid]
